Data as given in EPA's ToxRefDB 2.

What was measured:
rat [1] = settings: Multigenerational reproductive toxicity study, sprague dawley, Oral, Feed, dose end: 3 generation
rat [2] = settings: Multigenerational reproductive toxicity study, sprague dawley, Oral, Feed, dose end: 3 generation; remark: listed apart in the source
rat [3] = settings: Subchronic oral toxicity in rodents, other, Feed, dose end: 17 week, group: systemic
rat [4] = settings: Sub-acute repeat dose toxicity, Sprague Dawley, Oral, Gavage/Intubation, dose end: 28 day
rat [5] = settings: Multigenerational reproductive toxicity study, sprague dawley, Oral, Feed, dose end: 2 generation
dog [6] = settings: Subchronic oral toxicity in nonrodent, beagle, Capsule, dose end: 90 day, group: systemic
dog [7] = settings: Subchronic oral toxicity in nonrodent, beagle, Capsule, dose end: 90 day, group: systemic, systemic / pathology microscopic / liver / [other] + systemic / pathology microscopic / liver / hypertrophy + systemic / pathology …
rabbit = settings: Prenatal developmental toxicity study, new zealand white, Oral, Gavage/Intubation, dose end: 18 GD
rat [8] = settings: Prenatal developmental toxicity study, sprague dawley, Oral, Gavage/Intubation, dose end: 15 GD
rat [9] = settings: Subchronic oral toxicity in rodents, sprague dawley, Gavage/Intubation, dose end: 90 day, group: systemic, systemic / organ weight / liver / absolute + systemic / organ weight / liver / relative to body weight + systemic / pathology microscopic / …
[10] = group: offspring, developmental / developmental landmark / vaginal opening / vaginal opening + systemic / in life observation / body weight / offspring (pup) …
[11] = group: parental, systemic / in life observation / body weight / body weight + systemic / organ weight / kidney / relative to body weight + systemic / organ …
[12] = group: parental, systemic / pathology microscopic / kidney / mineralization + systemic / pathology microscopic / kidney / cyst + systemic / pathology …
[13] = group: reproductive, reproductive / offspring survival early / litter size / litter size + reproductive / reproductive performance / estrous cycle / length + …
[14] = group: reproductive, reproductive / reproductive performance / gestational length / gestational length
[15] = group: offspring, developmental / developmental landmark / preputial separation / preputial separation + systemic / in life observation / body weight / …
[16] = group: offspring, systemic / in life observation / food consumption / food consumption + systemic / pathology microscopic / kidney / degeneration
[17] = group: parental, systemic / in life observation / food consumption / food consumption + systemic / organ weight / kidney / relative to body weight
[18] = group: parental, systemic / pathology gross / sperm measure / sperm morphology
[19] = group: reproductive, reproductive / offspring survival early / live fetuses / live fetuses
[20] = systemic / in life observation / body weight / body weight gain + systemic / in life observation / food consumption / food consumption + …
[21] = group: maternal, reproductive / reproductive performance / estrous cycle / abnormal
[22] = group: systemic, systemic / clinical chemistry / glucose / glucose + systemic / clinical chemistry / luteinizing hormone (lh) / luteinizing hormone (lh) + …
[23] = group: offspring, systemic / hematology / leukocyte (wbc) count differential / leukocyte (wbc) + systemic / hematology / monocytes / monocytes
[24] = group: offspring, systemic / hematology / leukocyte (wbc) count differential / leukocyte (wbc) + systemic / in life observation / body weight / offspring (pup…
[25] = group: parental, systemic / hematology / leukocyte (wbc) count differential / leukocyte (wbc) + systemic / in life observation / body weight / body weight
[26] = systemic / pathology microscopic / liver / cytoplasmic alteration + systemic / pathology microscopic / liver / vacuolization
[27] = systemic / pathology microscopic / liver / cytoplasmic alteration + systemic / pathology microscopic / liver / vacuolization + systemic / …
[28] = group: developmental, developmental / developmental malformation / bone / misshapen
[29] = group: maternal, reproductive / reproductive performance / postimplantation loss / postimplantation loss + systemic / in life observation / body weight / …
[30] = group: developmental, systemic / in life observation / body weight / fetal weight
[31] = group: maternal, systemic / in life observation / clinical signs / respiration (rales) + systemic / in life observation / clinical signs / salivation + …

**Q.** For `CC(C)CCCCCCc1ccc(O)cc1` [4-Nonylphenol, branched], which NEL (rat [1]; group: offspring, developmental / developmental landmark / vaginal opening / vaginal opening) is on record?
**A.** 10 mg/kg/day

**Q.** And the LEL (rat [1]; [10])?
**A.** 32.5 mg/kg/day

**Q.** And the LOAEL (rat [1]; [10])?
**A.** > 100 mg/kg/day

**Q.** What about the NOAEL (rat [1]; [10]) of the same molecule?
**A.** ≥ 100 mg/kg/day

**Q.** What about the LOAEL (rat [1]; [11]) of the same molecule?
**A.** > 100 mg/kg/day

**Q.** What about the NOAEL (rat [1]; [11]) of the same molecule?
**A.** ≥ 100 mg/kg/day

**Q.** What about the LEL (rat [1]; [12]) of the same molecule?
**A.** 10 mg/kg/day

**Q.** What about the NEL (rat [1]; [12]) of the same molecule?
**A.** < 10 mg/kg/day

**Q.** And the LOAEL (rat [1]; [13])?
**A.** > 100 mg/kg/day

**Q.** What about the NOAEL (rat [1]; [13]) of the same molecule?
**A.** ≥ 100 mg/kg/day

**Q.** And the LEL (rat [1]; [14])?
**A.** 10 mg/kg/day

**Q.** And the NEL (rat [1]; [14])?
**A.** < 10 mg/kg/day

**Q.** And the LOAEL (rat [2]; [15])?
**A.** > 171 mg/kg/day

**Q.** What about the NOAEL (rat [2]; [15]) of the same molecule?
**A.** ≥ 171 mg/kg/day

**Q.** What about the LEL (rat [2]; [16]) of the same molecule?
**A.** 18 mg/kg/day

**Q.** And the NEL (rat [2]; [16])?
**A.** < 18 mg/kg/day

**Q.** And the LOAEL (rat [2]; [17])?
**A.** > 122 mg/kg/day

**Q.** And the NOAEL (rat [2]; [17])?
**A.** ≥ 122 mg/kg/day

**Q.** And the LEL (rat [2]; [18])?
**A.** 18 mg/kg/day

**Q.** And the NEL (rat [2]; [18])?
**A.** < 18 mg/kg/day

**Q.** And the LEL (rat [2]; [19])?
**A.** 171 mg/kg/day

**Q.** What about the LOAEL (rat [2]; [19]) of the same molecule?
**A.** > 171 mg/kg/day

**Q.** And the NEL (rat [2]; [19])?
**A.** 53 mg/kg/day

**Q.** What about the NOAEL (rat [2]; [19]) of the same molecule?
**A.** ≥ 171 mg/kg/day

**Q.** And the LEL (rat [3]; systemic / in life observation / body weight / body weight)?
**A.** 50 mg/kg/day

**Q.** And the NEL (rat [3]; systemic / in life observation / body weight / body weight + systemic / in life observation / body weight / body weight gain + systemic / …)?
**A.** 15 mg/kg/day

**Q.** What about the LOAEL (rat [3]; [20]) of the same molecule?
**A.** > 150 mg/kg/day

**Q.** What about the NOAEL (rat [3]; [20]) of the same molecule?
**A.** ≥ 150 mg/kg/day

**Q.** And the LEL (rat [4]; [21])?
**A.** 250 mg/kg/day

**Q.** What about the LOAEL (rat [4]; [21]) of the same molecule?
**A.** > 250 mg/kg/day

**Q.** What about the NEL (rat [4]; [21]) of the same molecule?
**A.** 50 mg/kg/day

**Q.** What about the NOAEL (rat [4]; [21]) of the same molecule?
**A.** ≥ 250 mg/kg/day

**Q.** And the LEL (rat [4]; [22])?
**A.** 50 mg/kg/day

**Q.** And the LOAEL (rat [4]; [22])?
**A.** > 250 mg/kg/day

**Q.** And the NEL (rat [4]; [22])?
**A.** 10 mg/kg/day

**Q.** What about the NOAEL (rat [4]; [22]) of the same molecule?
**A.** ≥ 250 mg/kg/day

**Q.** What about the LEL (rat [5]; [23]) of the same molecule?
**A.** 1.25 mg/kg/day

**Q.** What about the NEL (rat [5]; [23]) of the same molecule?
**A.** < 1.25 mg/kg/day

**Q.** And the LOAEL (rat [5]; [24])?
**A.** > 100 mg/kg/day

**Q.** And the NOAEL (rat [5]; [24])?
**A.** ≥ 100 mg/kg/day

**Q.** What about the LEL (rat [5]; [25]) of the same molecule?
**A.** 100 mg/kg/day

**Q.** And the LOAEL (rat [5]; [25])?
**A.** > 100 mg/kg/day

**Q.** What about the NEL (rat [5]; [25]) of the same molecule?
**A.** 25 mg/kg/day

**Q.** What about the NOAEL (rat [5]; [25]) of the same molecule?
**A.** ≥ 100 mg/kg/day

**Q.** For `CCCCCC(C)(CC)C(=O)NC` (configuration not stated) [N-Methylneodecanamide], which LOAEL (dog [6]; [26]) is on record?
**A.** 13.5 mg/kg/day

**Q.** What about the NOAEL (dog [6]; [26]) of the same molecule?
**A.** < 13.5 mg/kg/day

**Q.** What about the LEL (dog [6]; [27]) of the same molecule?
**A.** 13.5 mg/kg/day

**Q.** And the NEL (dog [6]; [27])?
**A.** < 13.5 mg/kg/day

**Q.** And the LEL (dog [7])?
**A.** 4.52 mg/kg/day

**Q.** And the LOAEL (dog [7])?
**A.** 4.52 mg/kg/day

**Q.** And the NEL (dog [7])?
**A.** 1.35 mg/kg/day

**Q.** What about the NOAEL (dog [7]) of the same molecule?
**A.** 1.35 mg/kg/day

**Q.** And the LEL (rabbit; [28])?
**A.** 200 mg/kg/day

**Q.** What about the LOAEL (rabbit; [28]) of the same molecule?
**A.** 200 mg/kg/day

**Q.** And the NEL (rabbit; [28])?
**A.** 100 mg/kg/day

**Q.** And the NOAEL (rabbit; [28])?
**A.** 100 mg/kg/day

**Q.** What about the LEL (rabbit; [29]) of the same molecule?
**A.** 200 mg/kg/day

**Q.** What about the LOAEL (rabbit; [29]) of the same molecule?
**A.** 200 mg/kg/day

**Q.** What about the NEL (rabbit; [29]) of the same molecule?
**A.** 100 mg/kg/day

**Q.** And the NOAEL (rabbit; [29])?
**A.** 100 mg/kg/day

**Q.** What about the LEL (rat [8]; [30]) of the same molecule?
**A.** 400 mg/kg/day

**Q.** What about the LOAEL (rat [8]; [30]) of the same molecule?
**A.** 400 mg/kg/day

**Q.** And the NEL (rat [8]; [30])?
**A.** 125 mg/kg/day

**Q.** What about the NOAEL (rat [8]; [30]) of the same molecule?
**A.** 125 mg/kg/day

**Q.** And the LEL (rat [8]; [31])?
**A.** 125 mg/kg/day

**Q.** And the LOAEL (rat [8]; [31])?
**A.** 125 mg/kg/day

**Q.** And the NEL (rat [8]; [31])?
**A.** 40 mg/kg/day

**Q.** What about the NOAEL (rat [8]; [31]) of the same molecule?
**A.** 40 mg/kg/day

**Q.** What about the LEL (rat [9]) of the same molecule?
**A.** 30 mg/kg/day

**Q.** And the LOAEL (rat [9])?
**A.** 30 mg/kg/day

**Q.** What about the NEL (rat [9]) of the same molecule?
**A.** 3 mg/kg/day

**Q.** What about the NOAEL (rat [9]) of the same molecule?
**A.** 3 mg/kg/day
